The target of assay [1] is T1, human ether-a-go-go-related gene (hERG)-encoded K+ channel (Homo sapiens, UniProt Q12809).
T1 construct: expressed in transfected cells; host or cells: Chinese hamster ovary K1 (CHO) cells
Kind of assay: hERG inhibition, IonWorks HT, hERG-expressing CHO cells. It counts as cell-based. The method, then:
Inhibition of the human ether-a-go-go-related gene (hERG)-encoded K^+ channel was determined using hERG-expressing Chinese hamster ovary K1 (CHO) cells on a IonWorks™ HT assay platform as described by M. H. Bridgland-Taylor et al. J. of Pharmacological and Toxicological Methods (2006); 54:189-199.
On the technique in general: hERG is a cardiac potassium channel; its block is linked to QT prolongation.

Assay [2] has as its system anaesthetized rabbits subjected to vagal stimulation. Kind of assay: In vivo PD model, anaesthetized rabbits with vagal stimulation: right atrial effective refractory period (RAERP), QT. On the set-up: species or system rabbit. The method, then: Rabbits were anaesthetized using ketalar and domitor (2.5 and 0.07 mg/kg, respectively) as an i.v. bolus followed by a maintenance i.v. infusion (11 and 0.33 mg/kg/h, respectively) and ventilated with room air. Two percutaneous polyethylene catheter (Venflon 0.8 mm, Viggo, Helsingborg, Sweden) for administration of anaesthetics and drug infusions, respectively, were inserted into marginal veins on the right and left ear. A polyethylene catheter (Intramedic PE 160 Clay Adams, Becton Dickinson, Sparks, Md., USA) was inserted into the left carotid artery and advanced to the level of the aortic arch for blood pressure recording (by means of a pressure transducer, Peter von Berg Medizintechnik Gmbh, Kirchseeon/Englharting, Germany) and for blood sampling. For recording of right atrial electrogram and for atrial pacing, a 4F quadripolar electrophysiological recording catheters (Electrophysiology catheter-Deflectable tip, Biosense Webster Inc, Johnson & Johnson, Diamond Bar, Calif., USA) was advanced into the right jugular vein and positioned high up in the right atrium (HRA). Electrodes were advanced via introducers (4F Fast-Cath haemostasis introducer, ST. Jude Medical, DAIG Division, Inc. Minnetonka, Minn., USA) correctly positioned through fluoroscopic guidance. The effective refractory period in the right atrium (RAERP) was determined at a stimulation current strength approximately 20% above the threshold for pacing the atria. A custom-made PC-based (AstraZeneca R&D, Mölndal, Sweden) programmable stimulator and constant current pulse generator (WPI Stimulus Isolator, World Precision Instruments, Sarasota, Fla., USA) were used for stimulation at one or two predefined basic cycle lengths (S1) of for example 200 and 300 ms. A premature extra stimulus (S2) was introduced after every 10th paced basic beat with increments of 2 ms until capture. […] For vagal stimulation, both vagal nerves were ligated and cut in the cervical region and propranolol (0.5 mg/kg) was administrated as an i.v. infusion to decrease sympathetic influence. Electrodes were inserted in the middle of the right vagal nerve to stimulate the efferent vagi. The RAERP was determined without or with vagal stimulation at 50% of maximal vagal response. Subsequent infusion of compound aimed to increase the RAERP with 20 ms during the first dose of two consecutive doses. The drug infusion was followed by a washout period of approximately 30-60 min. QT prolongation was recorded from surface electrocardiography (ECG). The effect on RAERP was measured several times during infusion and washout and blood samples were taken at each measurements. Effect and plasma concentration data was analysed accounting for a concentration-effect-time delay and the unbound plasma concentration (Ceu) increasing the RAERP by 20 ms was calculated.

Broadly, the IC50 is the midpoint of a concentration-inhibition curve. A low value points to greater potency.

T1 sequence (Q12809 whole entry): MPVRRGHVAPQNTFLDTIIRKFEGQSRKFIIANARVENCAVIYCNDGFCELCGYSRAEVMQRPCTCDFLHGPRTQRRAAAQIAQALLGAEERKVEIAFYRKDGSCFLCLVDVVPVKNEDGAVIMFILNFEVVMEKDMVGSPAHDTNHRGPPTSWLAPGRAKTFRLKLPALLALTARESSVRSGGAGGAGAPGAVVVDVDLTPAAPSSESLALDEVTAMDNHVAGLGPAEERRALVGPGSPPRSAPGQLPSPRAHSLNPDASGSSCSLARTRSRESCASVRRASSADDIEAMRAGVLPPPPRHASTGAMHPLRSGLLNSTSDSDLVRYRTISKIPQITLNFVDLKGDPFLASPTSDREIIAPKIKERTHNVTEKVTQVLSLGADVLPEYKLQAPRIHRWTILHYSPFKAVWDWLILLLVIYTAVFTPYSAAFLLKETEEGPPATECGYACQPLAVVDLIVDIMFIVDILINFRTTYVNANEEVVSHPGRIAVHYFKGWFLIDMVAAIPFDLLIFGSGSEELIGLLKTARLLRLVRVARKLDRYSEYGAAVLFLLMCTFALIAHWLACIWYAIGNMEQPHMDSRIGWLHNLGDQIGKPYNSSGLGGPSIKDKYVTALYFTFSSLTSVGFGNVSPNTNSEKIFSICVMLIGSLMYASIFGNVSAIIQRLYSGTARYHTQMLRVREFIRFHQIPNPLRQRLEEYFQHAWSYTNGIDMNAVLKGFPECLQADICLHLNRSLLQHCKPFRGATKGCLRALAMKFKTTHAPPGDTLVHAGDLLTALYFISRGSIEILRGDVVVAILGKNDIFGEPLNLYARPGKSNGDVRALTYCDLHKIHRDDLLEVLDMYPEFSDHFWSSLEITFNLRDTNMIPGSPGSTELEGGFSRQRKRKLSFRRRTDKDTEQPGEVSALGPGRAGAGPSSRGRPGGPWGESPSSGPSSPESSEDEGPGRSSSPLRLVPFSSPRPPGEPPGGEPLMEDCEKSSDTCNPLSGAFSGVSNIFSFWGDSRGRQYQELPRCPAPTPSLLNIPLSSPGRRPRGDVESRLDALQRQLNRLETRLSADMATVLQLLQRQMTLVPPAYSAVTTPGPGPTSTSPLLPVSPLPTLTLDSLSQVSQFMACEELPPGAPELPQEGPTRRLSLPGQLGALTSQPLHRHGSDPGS

Compound `CC[C@@H](CN1CC(O)C1)N(C)C(=O)c1ccc(Cl)cc1` [Example 39.12, (S)-4-Chloro-N-(1-(3-hydroxyazetidin-1-yl)butan-2-yl)-N-methylbenzamide] yielded an IC50 in assay [1] above 33 µM. The “Ceu 20 ms” value in assay [2] turned out to be 2.06 µM.
For `CN(C(=O)c1ccc(Cl)cc1)[C@H](CN1CC(O)C1)C1CCC1` [Example 39.14, (S)-4-Chloro-N-(1-cyclobutyl-2-(3-hydroxyazetidin-1-yl)ethyl)-N-methylbenzamide], in assay [1], the IC50 was above 33 µM. Also, the “Ceu 20 ms” value in assay [2] amounted to 0.10 µM.
Compound `Cc1cc(C(=O)N(C)[C@H](CN2CC(O)C2)C2CCC2)ccc1F` [Example 39.16, (S)—N-(1-Cyclobutyl-2-(3-hydroxyazetidin-1-yl)ethyl)-4-fluoro-N,3-dimethylbenzamide] returned an IC50 in assay [1] above 33 µM. For the same compound, the “Ceu 20 ms” value in assay [2] amounted to 0.24 µM.

The record behind these values is patent US8361998B2, “Compounds and their use as IKACh blockers” (AstraZeneca AB, priority 2010, dated 2013).
